Data on five cell lines can be found in the supplement of paper PMC10307832.

Assay in all cases: relative viability (nuclei count vs DMSO), 5 days (fraction); higher = more cells survive
Compound in the test “Alpelisib + Trametinib”: Cc1nc(NC(=O)N2CCC[C@H]2C(N)=O)sc1-c1ccnc(C(C)(C)C(F)(F)F)c1 [Alpelisib] + CC(=O)Nc1cccc(-n2c(=O)n(C3CC3)c(=O)c3c(Nc4ccc(I)cc4F)n(C)c(=O)c(C)c32)c1 [Trametinib] (partner 0.02 µM)
An outline of the steps:
(§1)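 After 5 days of treatment, lung cancer cells in 1536-well plates were fixed and stained in a single step (final 0.05% Triton X-100, 1% formaldehyde, 1 ug/ml Hoechst) and their nuclei counted on 4× images. Treatment had been applied by pin tool the day after seeding as one drug alone or as a fixed anchor-drug dose with five library-drug doses (not always all listed) in √10 steps. Relative viability is the nuclei count of treated wells divided by that of vehicle wells, and values are medians of duplicate plates.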

Compound in the test “Vemurafenib + Crizotinib”: CCCS(=O)(=O)Nc1ccc(F)c(C(=O)c2c[nH]c3ncc(-c4ccc(Cl)cc4)cc23)c1F [Vemurafenib] + C[C@@H](Oc1cc(-c2cnn(C3CCNCC3)c2)cnc1N)c1c(Cl)ccc(F)c1Cl [Crizotinib] (partner 1 µM)
The procedure, abridged:
as §1

Compound in the test “Vemurafenib + Trametinib”: CCCS(=O)(=O)Nc1ccc(F)c(C(=O)c2c[nH]c3ncc(-c4ccc(Cl)cc4)cc23)c1F [Vemurafenib] + CC(=O)Nc1cccc(-n2c(=O)n(C3CC3)c(=O)c3c(Nc4ccc(I)cc4F)n(C)c(=O)c(C)c32)c1 [Trametinib] (partner 0.02 µM)
An outline of the steps: as §1

Compound in the test “OSI-027 + Phenformin”: COc1cccc2cc(-c3nc([C@H]4CC[C@H](C(=O)O)CC4)n4ncnc(N)c34)[nH]c12 [OSI-027] + N=C(N)NC(=N)NCCc1ccccc1 [Phenformin] (partner 250 µM)
The procedure, abridged:
as §1

As to NCI-H596, the relative viability with Alpelisib + Trametinib (first compound 0.04 µM) turned out to be 0.801; in the test with Alpelisib + Trametinib (first compound 0.1265 µM) it was 0.815; in the test with Alpelisib + Trametinib (first compound 0.4 µM), 0.708; with Alpelisib + Trametinib (first compound 1.265 µM), 0.48; with Alpelisib + Trametinib (first compound 4 µM), 0.44; in the test with Vemurafenib + Crizotinib (first compound 0.03162 µM), 0.97. The relative viability with Vemurafenib + Crizotinib (first compound 0.1 µM) was 1.01; with Vemurafenib + Crizotinib (first compound 0.3162 µM), 0.992; with Vemurafenib + Crizotinib (first compound 1 µM), 1.09; with Vemurafenib + Trametinib (first compound 0.03162 µM) it was 0.792; with Vemurafenib + Trametinib (first compound 0.1 µM), 0.723; with Vemurafenib + Trametinib (first compound 0.3162 µM) it was 0.885. Further, the relative viability with Vemurafenib + Trametinib (first compound 1 µM) was 0.888; with OSI-027 + Phenformin (first compound 0.01 µM), 0.875; in the test with OSI-027 + Phenformin (first compound 0.03162 µM), 0.576; with OSI-027 + Phenformin (first compound 0.1 µM), 0.844; with OSI-027 + Phenformin (first compound 0.3162 µM) it was 0.865; with OSI-027 + Phenformin (first compound 1 µM) it was 0.614.
As for NCI-H1993, the relative viability with Alpelisib + Trametinib (first compound 0.04 µM) was 0.539; with Alpelisib + Trametinib (first compound 0.1265 µM), 0.477; with Alpelisib + Trametinib (first compound 0.4 µM), 0.5; with Alpelisib + Trametinib (first compound 1.265 µM), 0.483; with Alpelisib + Trametinib (first compound 4 µM), 0.49; in the test with Vemurafenib + Crizotinib (first compound 0.03162 µM), 0.906. Further, the relative viability with Vemurafenib + Crizotinib (first compound 0.3162 µM) came out at 0.935; with Vemurafenib + Crizotinib (first compound 1 µM), 0.818; in the test with Vemurafenib + Trametinib (first compound 0.03162 µM) it was 0.5; with Vemurafenib + Trametinib (first compound 0.3162 µM) it was 0.555; in the test with Vemurafenib + Trametinib (first compound 1 µM) it was 0.609; with OSI-027 + Phenformin (first compound 0.01 µM), 0.529. Besides, the relative viability with OSI-027 + Phenformin (first compound 0.03162 µM) is 0.472; in the test with OSI-027 + Phenformin (first compound 0.1 µM) it was 0.492; with OSI-027 + Phenformin (first compound 0.3162 µM) it was 0.546; with OSI-027 + Phenformin (first compound 1 µM), 0.547.
With EPLC-272H, the relative viability in the test with Alpelisib + Trametinib (first compound 0.04 µM) worked out at 0.268; with Alpelisib + Trametinib (first compound 0.1265 µM), 0.255; in the test with Alpelisib + Trametinib (first compound 0.4 µM) it was 0.315; in the test with Alpelisib + Trametinib (first compound 1.265 µM) it was 0.238; in the test with Alpelisib + Trametinib (first compound 4 µM), 0.231; with Vemurafenib + Crizotinib (first compound 0.03162 µM), 0.822. Further, the relative viability with Vemurafenib + Crizotinib (first compound 0.1 µM) was 0.809; with Vemurafenib + Crizotinib (first compound 0.3162 µM), 0.89; with Vemurafenib + Crizotinib (first compound 1 µM), 0.841; with Vemurafenib + Trametinib (first compound 0.03162 µM), 0.282; with Vemurafenib + Trametinib (first compound 0.1 µM), 0.323; with Vemurafenib + Trametinib (first compound 0.3162 µM), 0.338. The relative viability was found to be 0.331 in the test with Vemurafenib + Trametinib (first compound 1 µM); 0.309 with OSI-027 + Phenformin (first compound 0.01 µM); 0.258 with OSI-027 + Phenformin (first compound 0.03162 µM); 0.3 with OSI-027 + Phenformin (first compound 0.1 µM); 0.276 in the test with OSI-027 + Phenformin (first compound 0.3162 µM); 0.211 with OSI-027 + Phenformin (first compound 1 µM).
Regarding NCI-H1915, the relative viability with Alpelisib + Trametinib (first compound 0.04 µM) was 0.307; in the test with Alpelisib + Trametinib (first compound 0.1265 µM) it was 0.304; with Alpelisib + Trametinib (first compound 0.4 µM) it was 0.312; in the test with Alpelisib + Trametinib (first compound 1.265 µM), 0.285; with Alpelisib + Trametinib (first compound 4 µM), 0.26; in the test with Vemurafenib + Crizotinib (first compound 0.03162 µM) it was 0.874. For the same cell line, the relative viability in the test with Vemurafenib + Crizotinib (first compound 0.1 µM) amounted to 0.908; with Vemurafenib + Crizotinib (first compound 0.3162 µM), 0.853; with Vemurafenib + Crizotinib (first compound 1 µM), 0.769; with Vemurafenib + Trametinib (first compound 0.03162 µM) it was 0.308; with Vemurafenib + Trametinib (first compound 0.1 µM) it was 0.26; with Vemurafenib + Trametinib (first compound 0.3162 µM), 0.328. For the same cell line, the relative viability in the test with Vemurafenib + Trametinib (first compound 1 µM) was found to be 0.358; with OSI-027 + Phenformin (first compound 0.01 µM), 0.38; in the test with OSI-027 + Phenformin (first compound 0.03162 µM), 0.38; with OSI-027 + Phenformin (first compound 0.1 µM) it was 0.359; with OSI-027 + Phenformin (first compound 0.3162 µM) it was 0.381; in the test with OSI-027 + Phenformin (first compound 1 µM), 0.32.
Take LC-2-ad: the relative viability with Alpelisib + Trametinib (first compound 0.04 µM) was 0.902; with Alpelisib + Trametinib (first compound 0.1265 µM), 0.93; with Alpelisib + Trametinib (first compound 0.4 µM) it was 0.968; with Alpelisib + Trametinib (first compound 1.265 µM), 0.764; in the test with Alpelisib + Trametinib (first compound 4 µM) it was 0.738; in the test with Vemurafenib + Crizotinib (first compound 0.03162 µM), 0.315. Further, the relative viability in the test with Vemurafenib + Crizotinib (first compound 0.1 µM) was found to be 0.461; in the test with Vemurafenib + Crizotinib (first compound 0.3162 µM) it was 0.377; with Vemurafenib + Crizotinib (first compound 1 µM) it was 0.392; in the test with Vemurafenib + Trametinib (first compound 0.03162 µM), 0.868; with Vemurafenib + Trametinib (first compound 0.1 µM), 0.815; in the test with Vemurafenib + Trametinib (first compound 0.3162 µM), 0.998. Moreover, the relative viability in the test with Vemurafenib + Trametinib (first compound 1 µM) came out at 0.921; in the test with OSI-027 + Phenformin (first compound 0.01 µM) it was 0.566; in the test with OSI-027 + Phenformin (first compound 0.03162 µM) it was 0.647; in the test with OSI-027 + Phenformin (first compound 0.1 µM) it was 0.51; with OSI-027 + Phenformin (first compound 0.3162 µM), 0.509; with OSI-027 + Phenformin (first compound 1 µM), 0.449.
